The results in this text go back to publication PMC6349869, “The palladacycle complex AJ-5 induces apoptotic cell death while reducing autophagic flux in rhabdomyosarcoma cells” (Cell Death Discovery, 2019).

Structures are written as SMILES.

One assay relates to HT1080 cells. Put plainly: MTT cell viability assay, HT1080 fibrosarcoma. The settings on record: 48 h. In kind it is cell-based, human. In general terms: Tetrazolium assays rely on reduction of a dye to a coloured formazan, in cell work by metabolically active cells.
In another assay the test system is C2C12 cells. Put plainly: Clonogenic assay, C2C12 myoblasts. It is filed as cell-based, mouse. The settings on record: 24 h of 0.3 µM. On the procedure: Cells were seeded in 6-well plates and treated the following day with IC50, ½ IC50, ¼ IC50 AJ-5 and vehicle. After 24 h, 800–4000 cells were seeded in 35 mm dishes in drug-free medium. Formation of colonies were monitored and after 7–21 days cells were fixed with 3:1 methanol:acetic acid and stained with 0.5% crystal violet (Sigma Aldrich) in 100% methanol. Colonies were imaged and percentage colony area was determined using ImageJ v1.50i[58] and the plugin ColonyArea[59]. Colony area was determined for each drug concentration and expressed as a percentage of vehicletreated control.

A further assay relates to RD cells. Description: Single-cell autophagosome flux analyses. The following applies: IC50 48 h. In kind it is cell-based, human. On the procedure:
The autophagosome flux was calculated from the rate of autophagosome accumulation as previously described. Briefly, this was determined after the complete inhibition of fusion between autophagosomes and lysosomes using 400 nM bafilomycin A1 (B0025; LKT Laboratories Inc., Minnesota, USA).
Cells were transfected with a GFP-LC3 construct using Lipofectamine 3000 (L3000001; Thermo Fisher Scientific) according to the manufacturer’s instructions and maintained for 2 days in order to achieve high levels of GFP-LC3 expression.
Autophagosome, autolysosome and lysosome pool size was assessed by supplementing the culture media with 25 nM LysoTracker Red (L7528; Thermo Fisher Scientific) 2 h prior to image acquisition. An LSM 780 confocal with ELYRA S.1 Superresolution platform (Carl Zeiss) was used for image acquisition. The eight-chamber dish was placed in a heated chamber maintained at 5% CO2 that encased the microscope objective. An LCI Plan-Apochromat ×63/1.4 oil DIC M27 objective was used and samples were excited with an Argon multiline laser 25 mW at 488 and 514 nm with appropriate beam splitters and GaAsP detector 32+2 PMT. Multiple z layers were acquired with […] step width. Laser power and electron gain were set to achieve an optimal signal to noise ratio without causing photo-toxicity. […]

In a further assay the test system is AX-OH-1 cells. Put plainly: MTT cell viability assay, AX-OH-1. It is filed as cell-based, human. The following applies: AX-OH-1 (aRMS), 48 h. On the procedure: RH30 human aRMS cells (kindly provided by Associate Professor Judith Davie, Southern Illinois University), AX-OH-1 human aRMS and FL-OH-1 human eRMS cells (kindly provided by Professor Stefan Bath, University of Cape Town) were cultured in Roswell Park Memorial Institute Medium (RPMI)-1640 (Sigma Aldrich, Missouri, USA). […] Cell morphology was monitored using an Olympus CKX41 inverted microscope (MSAC Ltd, UK) and imaged with an EVOS™ XL AMEX1000 Core Imaging System (Thermo Fisher Scientific, Massachusetts, USA).
Cells were seeded in 96-well plates and treated the next day with a range of AJ-5 concentrations (0.1–1.0 μM) or vehicle ([…]) for 48 h. Cell viability was measured using the 3-(4,5-dimethylthiazol-2-yl)-2,5-diphenyl-trazolium bromide (MTT) assay (11465007001; Sigma Aldrich) according to the manufacturer’s instructions. Mean cell viability was calculated as a percentage of the mean vehicle control. At least three independent experiments in quadruplicate were performed from which the half maximal inhibitory concentration (IC50) was determined using GraphPad Prism version 6.0 (GraphPad Software, California, USA). The selectivity index (SI) was determined by dividing the IC50 of a normal cell line by the IC50 of a cancer cell line.

As a reminder, the IC50 is the concentration needed to halve the response being measured. A low value points to greater potency. As for `CC(C)c1cccc(C(C)C)c1[N+]1=Cc2cccc[c]2[Pd-2]1([Cl])[P+](CC[P+](c1ccccc1)(c1ccccc1)[Pd-2]1([Cl])[c]2ccccc2C=[N+]1c1c(C(C)C)cccc1C(C)C)(c1ccccc1)c1ccccc1` (stereo not shown) [AJ-5], the values for the IC50 in the assay on HT1080 cells and with AX-OH-1 cells were < 300 nM and ≤ 200 nM, respectively. In addition, the “Ability of C2C12 myoblasts to survive and proliferate (colony area)” value with C2C12 cells was “not significantly hindered”. Besides, the “Autolysosome pool size and autophagosome flux J” value in the assay on RD cells is “significantly decreased”.
